Measured values taken from patent US7041661B2, “Use of thiazolobenzoheterocycles for treating multiple sclerosis” (Aventis Pharmaceuticals Inc., priority 2002, dated 2006).

What was measured:
[1] = test system: Experimental Allergic Encephalomyelitis (EAE) of female SJL mice; assay: PLP 139-151 induced EAE in SJL/J mice, daily neurological score; format: in vivo, mouse
Description: The utility of the thiazobenzohetercyclic compounds of formula I for the treatment of various conditions associated with multiple sclerosis can be assessed by measuring their ability to inhibit effects of experimental allergic encephalomyelitis (EAE) in laboratory animals.
Experimental Autoimmune Encephalomyelitis (EAE) is a T-cell-mediated autoimmune disease of the nervous system that develops in susceptible animals following sensitization with either whole spinal cord homogenate or a myelin component. It is known that EAE reflects or mimics many of the pathophysiological steps in MS, including the role of certain adhesion molecules, the influence of T cells and antibodies reactive to components of the myelin sheath, the participation of metalloproteases in penetrating the blood-brain barrier, and the cytotoxic role of certain cytokines. One of the marketed MS therapies, glatiramer acetate (Copaxone®) was developed preclinically based on its success in treating various models of EAE.
EAE was induced in female SJL/J mice (8 wks old, from Jackson Laboratories) by immunization with the myelin Proteolipid Protein (PLP 139-151) from BACHEM, Bioscience. PLP139-151 was dissolved in H2O:PBS (1:1) solution to a concentration of 7.5 mg/10 ml (for 75 ug PLP per mouse) and emulsified with an equal volume of CFA supplemented with 40 mg/10 ml heated-killed mycobacterium tuberculosis H37Ra (BD Bioscience). Mice were injected s.c. with 0.2 ml of peptide emulsion in the abdominal flank (0.1 ml on each side). On the same day and 72 hr later, mice were injected i.v. with 35 ng and 50 ng of Bordetella Pertussis toxin (List Biological Laboratories ) in saline, respectively.
Compound A, one representative of thiazolobenzoheterocyclic compounds, was examined in the PLP/SJL mouse EAE model.
Study 1: There were five groups, i.e., vehicle (water), Compound A at doses of 5, 10 and 20 mg/kg and dexamethasone (DEX) at a dose of 3 mg/kg. Treatment was begun on day 7 after PLP immunization. Mice were dosed twice per day for 22 days. Results are as follows:
Study 2: There were five groups, i.e., vehicle (water), Compound A at doses of 10, 20 and 30/40 mg/kg and dexamethasone (DEX) at a dose of 3 mg/kg. Treatment was begun on day 7 after PLP immunization. Mice were dosed twice per day for 18 days.

[2] = test system: Experimental Allergic Encephalomyelitis (EAE) of female DA (Dark Agouti) rats; assay: Rat spinal cord homogenate induced EAE in DA rats, daily neurological score; format: in vivo; conditions: doses of 1, 3 and 10 mg/kg p.o., twice daily for 28 days from one day post-immunization
Protocol: EAE was induced in female DA (Dark Agouti) rats (8 wks old, from Harlan) by immunization with the 25% w/v rat spinal cord homogenate (r-SCH) in saline emulsified with an equal volume of CFA supplemented with 40 mg/10 ml heated-killed mycobacterium tuberculosis H37Ra (BD Bioscience). Rats were injected s.c. with 0.2 ml of emulsion in the base of tail.
Rats were scored daily before treatment starting from day 5 post-immunization through the entire experiment by a well-known behavioral scale system: Score 0, normal; 0.5, partial limp tail; 1, complete limp tail; 2, abnormal gait; 3, partial hind limb paralysis, and mice unable to walk normally; 3.5, one leg is completely paralyzed, and one leg is partially paralyzed; 4, complete hind limb paralysis; 4.5, Legs are completely paralyzed and Moribund; 5, death due to EAE. Compound A and Compound B (active metabolite of Compound A), two representatives of thiazolobenzoheterocyclic compounds, were examined in DA rat EAE procedure.
Compound A and Compound B were given one-day post-immunization, p.o. route, twice daily for 28 days.

[3] = Study 2, SJL EAE mice, twice per day for 18 days from day 7

What does the source list for `N=c1sc2cc(C(F)(F)F)cc3c2n1CC[S+]([O-])C3` (racemic) [Compound A, (R,S)-2-imino-9-trifluoromethyl-4,5-dihydro-2H,7H-thiazolo[3,4,5-de][4,1]benzothiazepine-6-oxide]?
neurological deficits in the EAE mice (FIG. 1) ([1]; Study 1, doses of 10 and 20 mg/kg p.o., twice per day for 22 days from day 7 after PLP immunization, vs vehicle): significantly reduced; EAE incidence [1, 3]: reduced; disease onset [1, 3]: delayed; neurological scores in SJL EAE mice ([1]; Study 2, doses of 10 and 20 mg/kg, twice per day for 18 days from day 7 after PLP immunization): significant reduced; EAE incidence [2]: significantly reduced; cumulative neurological scores [2]: significantly reduced; maximal neurological scores [2]: significantly reduced

`N=c1sc2cc(C(F)(F)F)cc3c2n1CCS(=O)(=O)C3` [Compound B, (R,S)-2-imino-9-trifluoromethyl-4,5-dihydro-2H,7H-thiazolo[3,4,5-de][4,1]benzothiazepine-6,6-dioxide] was tested. Which EAE incidence [2] did it give?
The EAE incidence was “significantly reduced”.

And the cumulative neurological scores [2]?
The cumulative neurological scores was “significantly reduced”.

What about the maximal neurological scores [2] of the same compound?
Its maximal neurological scores is “significantly reduced”.
